As usually defined, the IC50 is the concentration that inhibits the measured activity by half. Lower therefore signals greater potency in that assay.

Chain of Neuraminidase Flu B (P03474 whole entry): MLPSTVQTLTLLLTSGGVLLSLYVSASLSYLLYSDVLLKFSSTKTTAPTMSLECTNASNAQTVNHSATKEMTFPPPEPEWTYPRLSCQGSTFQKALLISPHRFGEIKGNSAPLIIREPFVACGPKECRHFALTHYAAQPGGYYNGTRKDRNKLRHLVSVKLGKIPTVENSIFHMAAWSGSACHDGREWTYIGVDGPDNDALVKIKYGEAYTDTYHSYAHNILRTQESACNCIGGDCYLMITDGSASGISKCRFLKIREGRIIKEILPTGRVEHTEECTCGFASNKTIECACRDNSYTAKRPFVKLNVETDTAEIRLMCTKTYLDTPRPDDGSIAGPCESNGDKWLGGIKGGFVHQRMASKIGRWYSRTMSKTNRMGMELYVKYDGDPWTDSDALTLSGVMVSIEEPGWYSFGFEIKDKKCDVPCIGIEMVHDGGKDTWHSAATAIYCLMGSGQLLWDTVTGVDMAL

One assay concerns the target Neuraminidase Flu A. Briefly: Neuraminidase inhibition in vitro, Flu A. Format: biochemical, influenza virus A. The text has this: Compositions of the invention are screened for inhibitory activity against neuraminidase by any of the conventional techniques for evaluating enzyme activity.
(§1) Useful in vitro screens have been described in detail and will not be elaborated here. However, von Itzstein, M. et al.; "Nature", 363(6428):418-423 (1993), in particular page 420, column 2, full paragraph 3, to page 421, column 2, first partial paragraph, describes a suitable in vitro assay of Potier, M.; et al.; "Analyt. Biochem.", 94:287-296 (1979), as modified by Chong, A. K. J.; et al.; "Biochem. Biophys. Acta", 1077:65-71 (1991); and Colman, P. M.; et al.; International Publication No. WO 92/06691 (Int. App. No. PCT/AU90/00501, publication date Apr. 30, 1992) page 34, line 13, to page 35, line 16, describes another useful in vitro screen.
As for `CCCCN(C)[C@@H]1C=C(C(=O)O)C[C@H](N)[C@H]1NC(C)=O` [Compound 5b], the IC50 is 180 nM.

In turn, `CCC(CC)N(C)[C@@H]1C=C(C(=O)O)C[C@H](N)[C@H]1NC(C)=O` [Compound 5c] displayed an IC50 of 6 nM.

Consider `CCC(CC)CN(C)[C@@H]1C=C(C(=O)O)C[C@H](N)[C@H]1NC(C)=O` [Compound 5d], for which it took 120 nM to reach half-maximal inhibition (IC50).

For `CC(=O)N[C@H]1[C@H](N(C)CCc2ccccc2)C=C(C(=O)O)C[C@@H]1N` [Compound 5e], the IC50 worked out at 100 nM.

The compound `CC(=O)N[C@H]1[C@H](N(C)C2CCCCC2)C=C(C(=O)O)C[C@@H]1N` [Compound 5f] came in with an IC50 of 200 nM.

With `CCCN(CC)[C@@H]1C=C(C(=O)O)C[C@H](N)[C@H]1NC(C)=O` [Compound 5g], the IC50 is 90 nM.

As to `CCCCN(CC)[C@@H]1C=C(C(=O)O)C[C@H](N)[C@H]1NC(C)=O` [Compound 5h], the IC50 is 85 nM.

Compound `CCCN(CCC)[C@@H]1C=C(C(=O)O)C[C@H](N)[C@H]1NC(C)=O` [Compound 5i] displayed an IC50 of 12 nM.

In turn, `CCCN(CC1CC1)[C@@H]1C=C(C(=O)O)C[C@H](N)[C@H]1NC(C)=O` [Compound 5j] came in with an IC50 of 50 nM.

The compound `CC(=O)N[C@H]1[C@H](N2CCCC2)C=C(C(=O)O)C[C@@H]1N` [Compound 5k] registered an IC50 of 400 nM.

Turning to `CC(=O)N[C@H]1[C@H](N2CCCCC2)C=C(C(=O)O)C[C@@H]1N` [Compound 5l], the midpoint of inhibition, the IC50, lay at 30 nM. Compared with the last compound, the IC50 is about 13-fold lower.

Turning to `CC(=O)N[C@H]1[C@H](N2CCOCC2)C=C(C(=O)O)C[C@@H]1N` [Compound 5m], the IC50 was 200 nM.

`CCC(CC)N[C@@H]1C=C(C(=O)O)C[C@H](N)[C@H]1NC(C)=O` [Compound 12a] came in with a concentration for half-maximal inhibition (IC50) of 11.5 nM.

In the case of `CCCN[C@@H]1C=C(C(=O)O)C[C@H](N)[C@H]1NC(C)=O` [Compound 12b], the IC50 stood at 200 nM.

A further assay has as its target Neuraminidase Flu B (Influenza B virus, UniProt P03474). Put plainly: biochemical.
From the text: Compositions of the invention are screened for inhibitory activity against neuraminidase by any of the conventional techniques for evaluating enzyme activity. Within the context of the invention, typically compositions are first screened for inhibition of neuraminidase in vitro and compositions showing inhibitory activity are then screened for activity in vivo.
as §1
Enzyme Inhibition: Using the methods of screening in vitro activity described above, the following activities were observed: […]
With `CC(=O)N[C@H]1[C@H](N2CCCCC2)C=C(C(=O)O)C[C@@H]1N` [Compound 5l], the IC50 stood at 3 nM. That is a single-digit nanomolar value.

For the origin of these results see patent US6111132A, “Compounds and methods for synthesis and therapy” (priority 1998, dated 2000).
